Reference: patent publication US20250281462A1, “THERAPEUTICALLY EFFECTIVE ORAL ADMINISTRATION OF A 2 ARYLBENZIMIDAZOLE” (Tranquis Therapeutics, Inc., priority 2021, published 2025)
Where “and” joins values, the source holds several entries; their conditions need not be identical. Identical values can stand only once. Entries after “also recorded” stand apart in the source; their conditions may differ. Like-named read-outs stand apart in the source and are kept apart here.

Columns and labels:
IL-6 = experiment: LPS-stimulated IL-6 secretion from human PBMCs (ELISA); assay type: cell-based; conditions: LPS 1 ng/mL, 24 h
Method: The principal metabolites from liver metabolism of TQS-168 following oral administration have been described. See Sun et al., Rapid Commun. Mass Spectrom. 32:480-488 (2018), incorporated herein by reference. We synthesized the phase 1 metabolites from liver metabolism of TQS-168 illustrated in FIG. 20 and tested them for the ability to inhibit LPS-stimulated secretion of pro-inflammatory cytokines in vitro.
Briefly, 20,000 human PBMC were aliquoted into each well. LPS was added at 1 ng/mL and the cells incubated for 24 h in the presence of LPS and TQS-168 or one of its metabolites. Readouts were human IL-6 ELISA and human TNFα ELISA. For assay, supernatants were diluted in culture medium. The supernatant dilution for the IL-6 ELISA was 1:8, and the 1:2 for the human TNFα ELISA.

[1] = human, in vivo, 120 mg
Ppargc1α (PGC-1α) = conditions: Zhang et al., Diabetes 62:1297-1307 (2013); cited from earlier work
[2] = Plasma concentrations after single intravenous dose in mice; assay type: in vivo; conditions: male, CD-1, mouse, 0.5 mg/kg intravenous, read-out: Terminal elimination half life (converted)
Method: Three male 7-9 week old male CD-1 mice from Lingchang were treated intravenously with 0.5 mg/kg of TQS-168. TQS-168 was prepared in solution of 31.6% DMAC+36.8% Ethanol+31.6% Propylene glycol. Blood was collected at 0.5, 3, 10, 30, 60, 120, 240, 480 and 720 minutes after a single dose of TQS-168 and then processed. Blood samples were collected via saphenous vein puncture into a K2EDTA tube, centrifuged at 4° C. at 4600 rpm for 5 minutes and plasma collected and stored at less than −20° C. prior to being analyzed by LC-MS for TQS-168 concentrations. Data are presented as concentration and mean concentration of TQS-168 per volume of plasma (ng/mL), as shown in FIG. 10 (individual mice) and FIG. 11 (average), respectively.

TNF-α = experiment: LPS-induced TNF-α production by primary human myeloid cells (PBMC, CBA); assay type: cell-based; conditions: 100 ng/mL LPS, 24 hours
Method: Peripheral blood mononuclear cells (PBMC) from 4 different healthy volunteers were used in this study. Fresh blood samples were collected at Stanford Blood Center and processed for PBMC isolation with Ficoll gradient. PBMC samples were stored in liquid nitrogen at […] for subsequent analysis of TNF-α production. For TNF-α stimulation, frozen PBMC samples were thawed and rested at 37° C. before cells were stimulated with 100 ng/ml of LPS for 24 hours. DMSO (1:1000 final dilution) or TQS-168 in DMSO (1:1000 final dilution) at various concentrations was added to cell cultures of LPS-stimulated PBMC to evaluate the effects of T-168 on TNF-α production by human primary myeloid cells. After 24 hours stimulation, supernatant samples from various conditions were collected and TNF-α concentrations in the supernatants analyzed with cytometric bead array (CBA) assay per protocols from BD Biosciences. TNF-α was quantified by median fluorescent intensity reading (MFI). Samples were analyzed directly after staining with LSRII flow cytometer.

[3] = Tissue concentrations (plasma, brain, liver) after single oral dose 25 mg/kg in mice; assay type: in vivo
Method: In a first experiment, a total of 3-4 male C57BL6/J mice were administered a single dose of TQS-168 by oral gavage at 25 mg/kg. TQS-168 was prepared for oral gavage as a suspension with 0.5% methylcellulose in PBS.
Tissues were collected at various time points after dosing and processed for LC-MS analyses of TQS-168 concentrations. The tissues analyzed include plasma, brain, and liver. Animals were perfused thoroughly with 20 mL ice cold PBS before brain and liver collection to remove contaminating blood. Data are shown in Table 1 (TQS-168 concentrations in ng/mL).

[4] = 25 mg/kg p.o., 0.0 minutes, individual animal, 25 mg/kg
[5] = 25 mg/kg p.o., 15.0 minutes, individual animal, 25 mg/kg
[6] = 25 mg/kg p.o., 60.0 minutes, individual animal, 25 mg/kg
[7] = 25 mg/kg p.o., 120.0 minutes, individual animal, 25 mg/kg
[8] = 25 mg/kg p.o., 240.0 minutes, individual animal, 25 mg/kg
[9] = 25 mg/kg p.o., 480.0 minutes, individual animal, 25 mg/kg
[10] = 25 mg/kg p.o., 1440.0 minutes, individual animal, 25 mg/kg
[11] = 25 mg/kg p.o., 2880.0 minutes, individual animal, 25 mg/kg

CC(C)(C)c1ccc(-c2nc3cc(O)ccc3[nH]2)cc1 [TQS-621]
inhibition of LPS-stimulated IL-6 secretion (IL-6): potently inhibits; also recorded: potent inhibitor | AR AUC [1]: 1.46 | AR Cmax [1]: 1.03 | T1/2 ([1]; male): 10.2 h | Tmax ([1]; male): 1.75 h | accumulation ratio based on AUC(0-tau) ([1]; male, 7 days): 1.46 | accumulation ratio based on Cmax ([1]; male, 7 days): 1.30

CC(C)(C)c1ccc(-c2nc3ccccc3[nH]2)cc1 [TQS-168, 2-(4-tert-butylphenyl)-1H-benzimidazole]
effect on Ppargc1α (PGC-1α) gene expression (Ppargc1α (PGC-1α)): activator | half-life [2]: 8.4 min | suppression of TNFα production vs no treatment (TNF-α; 5 μM): statistically significant suppression | suppression of TNFα production vs no treatment (TNF-α; 20 μM): statistically significant suppression | concentration in brain [3, 4]: 4.2 ng/mL and 10.7 ng/mL and 22.8 ng/mL | concentration in liver [3, 4]: 2.4 ng/mL and 0.4 ng/mL and 0.7 ng/mL | concentration in plasma [3, 4]: 0.5 ng/mL and 0.1 ng/mL and 0.0 ng/mL | concentration in brain [3, 5]: 21.6 ng/mL and 42.0 ng/mL and 35.2 ng/mL | concentration in liver [3, 5]: 268.0 ng/mL and 496.0 ng/mL and 575.0 ng/mL and 431.5 ng/mL | concentration in plasma [3, 5]: 12.6 ng/mL and 18.6 ng/mL and 14.6 ng/mL | concentration in brain [3, 6]: 253.0 ng/mL and 755.0 ng/mL and 530.0 ng/mL and 630.0 ng/mL | concentration in liver [3, 6]: 1060.0 ng/mL and 2725.0 ng/mL and 1940.0 ng/mL and 2175.0 ng/mL | concentration in plasma [3, 6]: 107.0 ng/mL and 47.0 ng/mL and 57.4 ng/mL and 86.0 ng/mL | concentration in brain [3, 7]: 282.0 ng/mL and 150.5 ng/mL and 242.5 ng/mL | concentration in liver [3, 7]: 305.5 ng/mL and 2080.0 ng/mL and 1070.0 ng/mL and 1725.0 ng/mL | concentration in plasma [3, 7]: 110.0 ng/mL and 43.8 ng/mL and 88.6 ng/mL and 131.0 ng/mL | concentration in brain [3, 8]: 399.0 ng/mL and 143.0 ng/mL and 188.0 ng/mL and 10.6 ng/mL | concentration in liver [3, 8]: 60.5 ng/mL and 1520.0 ng/mL and 216.5 ng/mL and 680.0 ng/mL | concentration in plasma [3, 8]: 46.8 ng/mL and 175.0 ng/mL and 3.4 ng/mL and 14.0 ng/mL | concentration in brain [3, 9]: 34.8 ng/mL and 20.9 ng/mL and 5.3 ng/mL and 18.2 ng/mL | concentration in liver [3, 9]: 431.5 ng/mL and 50.5 ng/mL and 37.6 ng/mL and 147.5 ng/mL | concentration in plasma [3, 9]: 6.0 ng/mL and 2.7 ng/mL and 1.8 ng/mL and 10.9 ng/mL | concentration in plasma ([3]; 25 mg/kg p.o., 1440.0 minutes, individual animal): 0.0 ng/mL | concentration in brain [3, 10]: 36.3 ng/mL and 8.5 ng/mL and 10.5 ng/mL and 55.5 ng/mL | concentration in liver [3, 10]: 4.0 ng/mL and 2.6 ng/mL and 0.8 ng/mL and 8.7 ng/mL | concentration in plasma ([3]; 25 mg/kg p.o., 2880.0 minutes, individual animal): 0.0 ng/mL | concentration in brain [3, 11]: 0.0 ng/mL and 3.0 ng/mL and 2.5 ng/mL and 0.7 ng/mL | concentration in liver [3, 11]: 0.0 ng/mL (3×) and 1.0 ng/mL | concentration at 0 min ([3]; male, C57BL6/J, mouse, brain, po, 25 mg/kg, 25 mg/kg p.o., 0.0 minutes, average, read-out: concentration in brain): 12.6 ng/mL | concentration at 15 min ([3]; male, C57BL6/J, mouse, brain, po, 25 mg/kg, 25 mg/kg p.o., 15.0 minutes, average, read-out: concentration in brain): 34.7 ng/mL | concentration at 15 minutes ([3]; male, C57BL6/J, mouse, brain, po, 25 mg/kg, 25 mg/kg p.o., 15.0 minutes, individual animal): 40.2 ng/mL | concentration at 60 min ([3]; male, C57BL6/J, mouse, brain, po, 25 mg/kg, 25 mg/kg p.o., 60.0 minutes, average, read-out: concentration in brain): 542 ng/mL | concentration at 120 min ([3]; male, C57BL6/J, mouse, brain, po, 25 mg/kg, 25 mg/kg p.o., 120.0 minutes, average, read-out: concentration in brain): 236 ng/mL | concentration at 120 minutes ([3]; male, C57BL6/J, mouse, brain, po, 25 mg/kg, 25 mg/kg p.o., 120.0 minutes, individual animal): 270 ng/mL | concentration at 240 min ([3]; male, C57BL6/J, mouse, brain, po, 25 mg/kg, 25 mg/kg p.o., 240.0 minutes, average, read-out: concentration in brain): 185 ng/mL | concentration at 480 min ([3]; male, C57BL6/J, mouse, brain, po, 25 mg/kg, 25 mg/kg p.o., 480.0 minutes, average, read-out: concentration in brain): 19.8 ng/mL | concentration at 1440 min ([3]; male, C57BL6/J, mouse, brain, po, 25 mg/kg, 25 mg/kg p.o., 1440.0 minutes, average, read-out: concentration in brain): 27.7 ng/mL | concentration at 2880 min ([3]; male, C57BL6/J, mouse, brain, po, 25 mg/kg, 25 mg/kg p.o., 2880.0 minutes, average, read-out: concentration in brain): 1.5 ng/mL | concentration at 0 min ([3]; male, C57BL6/J, mouse, liver, po, 25 mg/kg, 25 mg/kg p.o., 0.0 minutes, average, read-out: concentration in liver): 1.2 ng/mL | concentration at 15 min ([3]; male, C57BL6/J, mouse, liver, po, 25 mg/kg, 25 mg/kg p.o., 15.0 minutes, average, read-out: concentration in liver): 443 ng/mL | concentration at 60 min ([3]; male, C57BL6/J, mouse, liver, po, 25 mg/kg, 25 mg/kg p.o., 60.0 minutes, average, read-out: concentration in liver): 1980 ng/mL | concentration at 120 min ([3]; male, C57BL6/J, mouse, liver, po, 25 mg/kg, 25 mg/kg p.o., 120.0 minutes, average, read-out: concentration in liver): 1300 ng/mL | concentration at 240 min ([3]; male, C57BL6/J, mouse, liver, po, 25 mg/kg, 25 mg/kg p.o., 240.0 minutes, average, read-out: concentration in liver): 619 ng/mL | concentration at 480 min ([3]; male, C57BL6/J, mouse, liver, po, 25 mg/kg, 25 mg/kg p.o., 480.0 minutes, average, read-out: concentration in liver): 167 ng/mL | concentration at 1440 min ([3]; male, C57BL6/J, mouse, liver, po, 25 mg/kg, 25 mg/kg p.o., 1440.0 minutes, average, read-out: concentration in liver): 4 ng/mL | concentration at 2880 min ([3]; male, C57BL6/J, mouse, liver, po, 25 mg/kg, 25 mg/kg p.o., 2880.0 minutes, average, read-out: concentration in liver): 0.3 ng/mL | Cmax ([3]; male, C57BL6/J, mouse, plasma, 25 mg/kg single oral dose): 93.4 ng/mL and 370 nM | concentration at 0 min ([3]; male, C57BL6/J, mouse, plasma, po, 25 mg/kg, 25 mg/kg p.o., 0.0 minutes, average, read-out: concentration in plasma): 0.2 ng/mL | concentration at 15 min ([3]; male, C57BL6/J, mouse, plasma, po, 25 mg/kg, 25 mg/kg p.o., 15.0 minutes, average, read-out: concentration in plasma): 16.2 ng/mL | concentration at 15 min ([3]; male, C57BL6/J, mouse, plasma, po, 25 mg/kg, 25 mg/kg p.o., 15.0 minutes, individual animal, read-out: concentration in plasma): 18.8 ng/mL | concentration at 60 min ([3]; male, C57BL6/J, mouse, plasma, po, 25 mg/kg, 25 mg/kg p.o., 60.0 minutes, average, read-out: concentration in plasma): 74.4 ng/mL | concentration at 120 min ([3]; male, C57BL6/J, mouse, plasma, po, 25 mg/kg, 25 mg/kg p.o., 120.0 minutes, average, read-out: concentration in plasma): 93.4 ng/mL | concentration at 240 min ([3]; male, C57BL6/J, mouse, plasma, po, 25 mg/kg, 25 mg/kg p.o., 240.0 minutes, average, read-out: concentration in plasma): 59.8 ng/mL | concentration at 480 min ([3]; male, C57BL6/J, mouse, plasma, po, 25 mg/kg, 25 mg/kg p.o., 480.0 minutes, average, read-out: concentration in plasma): 5.3 ng/mL | concentration at 1440 min ([3]; male, C57BL6/J, mouse, plasma, po, 25 mg/kg, 25 mg/kg p.o., 1440.0 minutes, average, read-out: concentration in plasma): 0 ng/mL | concentration at 1440 min ([3]; male, C57BL6/J, mouse, plasma, po, 25 mg/kg, 25 mg/kg p.o., 1440.0 minutes, individual animal, read-out: concentration in plasma): 0 ng/mL | concentration at 2880 min ([3]; male, C57BL6/J, mouse, plasma, po, 25 mg/kg, 25 mg/kg p.o., 2880.0 minutes, average, read-out: concentration in plasma): 0 ng/mL | concentration at 2880 min ([3]; male, C57BL6/J, mouse, plasma, po, 25 mg/kg, 25 mg/kg p.o., 2880.0 minutes, individual animal, read-out: concentration in plasma): 0 ng/mL
